Experimental data reported in paper PMC10907374, “G2019S selective LRRK2 kinase inhibitor abrogates mitochondrial DNA damage” (NPJ Parkinson's Disease, 2024).
“And” between values parts separate entries of the source, which are not always exact repeats. Equal entries are not always repeated. “Also recorded” adds a separate entry of the source.

Experiments:
wild-type HEK293 cells = experiment: Mito DNADX mtDNA damage and mtDNA copy number in wild-type HEK293 cells; assay type: cell-based, human; settings: 10 nM-1 μM, 2 h
Procedure: (§1) Cells were plated at a density of 0.3 × 10^6 cells in a 6-well dish and treated at ~40–50% confluency. At the time of harvest, cells were collected and either protein collected or DNA extracted as described below.
Following this treatment, “Post-treatment recovery 0 h” samples were collected immediately, or vehicle or MLi-2-containing treatment medium was washed out and replaced with fresh medium and incubated for 2 additional hours and then collected as “Post-treatment recovery 2 h” samples. Isolation, quantitation, and mtDNA damage was performed as described below. […]
Cells were collected and the nuclei and mitochondria were isolated as previously described. […] DNA was eluted with EDTA-free buffer, and quality was assessed using a Spectradrop microvolume microplate (Molecular Devices). Double-stranded DNA was quantified using Quant-iT Picogreen dsDNA assay (Thermo Fisher) as previously described.
DNA damage in the mitochondrial genome was measured utilizing Mito DNADX, an assay that we recently developed and described, currently the most robust way of measuring damage in mtDNA[39],[82]. The Mito DNADX assay combines optimized polymerase chain reaction (PCR) parameters using a high-fidelity DNA polymerase and a fluorescent dye that binds to double-stranded DNA that permits the real-time quantification of DNA damage in distinct loci in a 96-well platform. […]

[1] = tested on: LRRK2^G2019S/G2019S KI HEK293 cells; experiment: Mito DNADX mtDNA damage and mtDNA copy number in LRRK2 G2019S/G2019S KI HEK293 cells; assay type: cell-based, human; settings: for mtDNA copy number / mtDNA damage: LRRK2 G2019S/G2019S KI cells, 2 h; for mtDNA copy number: 10 nM-1 μM
Procedure: as §1
Following this treatment, “Post-treatment recovery 0 h” samples were collected immediately, or vehicle or MLi-2-containing treatment medium was washed out and replaced with fresh medium and incubated for 2 additional hours and then collected as “Post-treatment recovery 2 h” samples. Isolation, quantitation, and mtDNA damage was performed as described below.
The tool compound EB-42168 was discovered as part of a small molecule discovery program aimed at identifying LRRK2 kinase inhibitors that are selective for the pathogenic G2019S LRRK2 variant. […] MLi‐2 inhibits WT LRRK2 ~1000‐fold more than EB‐42168[20].
Cells were collected and the nuclei and mitochondria were isolated as previously described. DNA was extracted from LRRK2-WT and G2019S-LRRK2 cells, and wild-type and LRRK2^G2019S/G2019S KI cells using QuickGene DNA Whole Blood Kit L (Autogen, fk-dbl). PD patient LRRK2 G2019S and healthy subject control-derived LCL DNA was extracted using the QuickGene DNA Tissue Kit L (Autogen, fk-dtl), utilizing a semi-automated system (Autogen, QuickGene-610L). For the Autogen system, the pellet was resuspended in 2 ml of 1X PBS, and the standard manufacturer’s protocol was conducted as if the cell suspension was whole blood. DNA was eluted with EDTA-free buffer, and quality was assessed using a Spectradrop microvolume microplate (Molecular Devices). Double-stranded DNA was quantified using Quant-iT Picogreen dsDNA assay (Thermo Fisher) as previously described.
DNA damage in the mitochondrial genome was measured utilizing Mito DNADX, an assay that we recently developed and described, currently the most robust way of measuring damage in mtDNA[39],[82]. The Mito DNADX assay combines optimized polymerase chain reaction (PCR) parameters using a high-fidelity DNA polymerase and a fluorescent dye that binds to double-stranded DNA that permits the real-time quantification of DNA damage in distinct loci in a 96-well platform. The premise of the Mito DNADX assay involves amplification of a specific mitochondrial PCR fragment in which less PCR product will be amplified when mtDNA damage or lesions block the ability of the DNA polymerase to replicate. As such, mtDNA damage or mtDNA repair intermediates that slow down or impair DNA polymerase progression will be detected. Therefore, equal amounts of sample DNA amplified under identical conditions can be directly compared across conditions to determine the mtDNA lesion frequency. Mitochondrial DNA lesion frequency was performed as previously described. Briefly, 15 ng of DNA was used to amplify long or short amplicons of the mitochondrial genome (as determined by primer sets). The amount of amplification is directly proportional to the number of undamaged DNA templates. Average lesion frequency is calculated as described. Results are presented with the values in experimental samples relative to control samples (normalized to 1 lesion per 10 kb). PCR reactions included KAPA Long Range HotStart DNA Polymerase (KAPA Biosystems)[49]. Each biological DNA sample was analyzed in technical triplicate. Limitations of the Mito DNADX assay have been recently discussed.

[2] = tested on: LRRK2 in heterozygous G2019S LRRK2 PD patient-derived LCLs; experiment: LRRK2 pSer935 western immunoblot in heterozygous G2019S LRRK2 PD patient-derived LCLs; assay type: cell-based, human; settings: for decrease in LRRK2 pSer935 levels: heterozygous G2019S LRRK2 PD LCLs
Procedure: PD patient G2019S LRRK2 (n = 2) and healthy subject control (n = 2)-derived LCLs were obtained from the NINDS Coriell biorepository (ID numbers are ND00011, ND00264, ND01618, ND02559). […] LCLs were cultured at 37 °C, 5% CO2, in RPMI-1640 (Sigma-Aldrich, R8758), 15% heat-inactivated fetal bovine serum (VWR Seradigm, 97068-091) and 0.5% Penicillin/Streptomycin (Corning, 30-002-CI). […] All in vitro experiments were repeated at least three times from distinct samples.
For LRRK2-WT or G2019S-LRRK2, ~1.5 million cells were pelleted and resuspended in 75 μl of lysis buffer [(RIPA Buffer (Sigma-Aldrich, R0278-50ML), protease inhibitor cocktail (Sigma-Aldrich, P8340), and Halt phosphatase inhibitor cocktail (Thermo Fisher, 78420)]. For LCLs, five million cells were pelleted and resuspended in 100 µl of lysis buffer. For both types of cells lysates were centrifuged at 10,000 × g after a 10 min incubation on ice, and the supernatant was collected. Protein was quantified using the DC protein assay (Bio-Rad, 5000112). In total, 50 μg of protein was loaded for HEK293 LRRK2-WT or G2019S-LRRK2 cells. Due to the differing endogenous LRRK2 levels, 40 µg of ND02559, 60 µg of ND00264, or 100 µg of ND00011 and ND01618 of protein sample was loaded. Protein samples were incubated at 100 °C for 5 min with NuPAGE Sample loading dye (Thermo Fisher, NP0007) and dithiothreitol as reducing agent. After 4–20% SDS-PAGE, the blots were blocked in 5% w/v nonfat dry milk in 1X PBST (0.05% Tween 20). For our investigations, the following primary antibodies were used: mouse anti-LRRK2 N241a (Antibodies INC, 75-253, 1:5000 for HEK293 cells and 1:2000 for LCLs), rabbit anti-LRRK2 pS935 (Abcam, ab133450, 1:10,000 for HEK293 cells and 1:2000 for LCLs), mouse anti-β-actin (Novus, 8H10D10, 1:10,000), and rabbit anti-LRRK2 pS1292 (Abcam, ab203181, 1:500). The blots were then probed with fluorescent-labeled secondary antibodies, IRDye donkey anti-mouse and anti-rabbit at 1:10,000 (LI-COR, 926-32212, 926-68072), and scanned using an Odyssey Imaging scanner (LI-COR). Fluorescence intensities were quantified using ImageStudio Lite software (LI-COR), and the signal from the protein of interest was normalized to the fluorescence intensity of either LRRK2 or β-actin. Values were averaged from at least three technical replicates within a cell line, or two biological replicates (two healthy control lines and two PD LCLs). All blots were derived from the same experiment and processed in parallel.

G2019S LRRK2 = settings: cited from earlier work

Compound	mtDNA copy number (wild-type HEK293 cells)	mtDNA copy number after inhibitor washout ([1]; 100 nM for 2 h, washout, 2 h recovery)	mtDNA damage phenotype after inhibitor washout ([1]; KI cells, 100 nM for 2 h, washout, 2 h recovery in media)	time to re-establishment of mtDNA damage phenotype after washout ([1]; KI cells, 100 nM for 2 h then washout) [h]	mtDNA copy number [1]	mtDNA damage ([1]; 100 nM)	effect on LRRK2 pSer935 (in words) ([2]; G2019S LRRK2 PD LCLs, 10 and 100 nM, 2 h)	potency in recombinant cell lines expressing WT-LRRK2 or G2019S-LRRK2 (G2019S LRRK2)	mtDNA copy number ([1]; listed as EB-42618)	mtDNA damage ([1]; all concentrations tested (10 nM-1 μM))	decrease in LRRK2 pSer935 levels ([2]; 10 nM, 2 h)	decrease in LRRK2 pSer935 levels ([2]; 100 nM, 2 h) [%]	decrease of LRRK2 pSer935 ([2]; human PD patient-derived cells heterozygous for G2019S LRRK2, concentration not given)	fold more potent inhibition of G2019S LRRK2 than wild-type LRRK2 (G2019S LRRK2) [fold]
C[C@@H]1CN(c2cc(-c3n[nH]c4ccc(OC5(C)CC5)cc34)ncn2)C[C@H](C)O1 [MLi-2, reference compound]	did not change	no changes	fully re-established	≤ 2	did not change; also recorded: No effect; also recorded: No changes	reversed mtDNA damage levels to wild-type levels	almost completely; also recorded: almost complete	equipotent						
CC1=C(C(=O)Nc2ccc3[nH]nc(-c4ccnc(N5CCOCC5)c4)c3c2)C(C)(C)n2nnnc2N1C [EB-42168]	no effect				reduced				modestly decreased	reversed to wild-type levels	~ 30% and 25%	~40	about 40%	100
